Laboratory results taken from the supplement of paper PMC10307832.

Experiments:
Test in all cases: relative viability (nuclei count vs DMSO), 5 days (fraction); higher = more cells survive
HCC-44 = system: HCC-44
How it was run: (§1)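 Each reported value is a median over duplicate plates. It expresses relative viability: treated-well nuclei count divided by vehicle-well nuclei count. Lung cancer cell lines in 1536-well plates were dosed by pin tool a day after seeding, alone with one drug or with a fixed anchor-drug dose plus five library-drug doses (not always all listed) in √10 steps, and nuclei were counted after 5 days.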

EPLC-272H = system: EPLC-272H
How it was run: as §1

NCI-H1666 = system: NCI-H1666
How it was run: as §1

NCI-H2342 = system: NCI-H2342
How it was run: as §1

NCI-H650 = system: NCI-H650
How it was run: as §1

LU99A = system: LU99A
How it was run: as §1

LOU-NH91 = system: LOU-NH91
How it was run: as §1

NCI-H2087 = system: NCI-H2087
How it was run: as §1

201T = system: 201T
How it was run: as §1

NCI-H2170 = system: NCI-H2170
How it was run: as §1

H3255 = system: H3255
How it was run: as §1

NCI-H1975 = system: NCI-H1975
How it was run: as §1

EKVX = system: EKVX
How it was run: as §1

NCI-H647 = system: NCI-H647
How it was run: as §1

PC-3 [JPC-3] = system: PC-3 [JPC-3]
How it was run: as §1

SW 1573 = system: SW 1573
How it was run: as §1

HCC-827 = system: HCC-827
How it was run: as §1

BEN = system: BEN
How it was run: as §1

NCI-H1437 = system: NCI-H1437
How it was run: as §1

LCLC-97TM1 = system: LCLC-97TM1
How it was run: as §1

COR-L 105 = system: COR-L 105
How it was run: as §1

NCI-H2085 = system: NCI-H2085
How it was run: as §1

SMILES: CC(=O)O[C@@]12CO[C@@H]1C[C@H](O)[C@@]1(C)C(=O)[C@H](O)C3=C(C)[C@@H](OC(=O)[C@H](O)[C@@H](NC(=O)OC(C)(C)C)c4ccccc4)C[C@@](O)([C@@H](OC(=O)c4ccccc4)[C@H]21)C3(C)C [Docetaxel] + N=C(N)NC(=N)NCCc1ccccc1 [Phenformin] (partner 250 µM)
- relative viability (HCC-44; first compound 0.0002 µM): 0.185
- relative viability (HCC-44; first compound 0.000632 µM): 0.113
- relative viability (HCC-44; first compound 0.002 µM): 0.113
- relative viability (HCC-44; first compound 0.006325 µM): 0.101
- relative viability (HCC-44; first compound 0.02 µM): 0.0735
- relative viability (EPLC-272H; first compound 0.0002 µM): 0.304
- relative viability (EPLC-272H; first compound 0.000632 µM): 0.242
- relative viability (EPLC-272H; first compound 0.002 µM): 0.194
- relative viability (EPLC-272H; first compound 0.006325 µM): 0.0792
- relative viability (EPLC-272H; first compound 0.02 µM): 0.0848
- relative viability (NCI-H1666; first compound 0.0002 µM): 0.47
- relative viability (NCI-H1666; first compound 0.000632 µM): 0.515
- relative viability (NCI-H1666; first compound 0.002 µM): 0.537
- relative viability (NCI-H1666; first compound 0.006325 µM): 0.382
- relative viability (NCI-H1666; first compound 0.02 µM): 0.337
- relative viability (NCI-H2342; first compound 0.0002 µM): 0.478
- relative viability (NCI-H2342; first compound 0.000632 µM): 0.596
- relative viability (NCI-H2342; first compound 0.002 µM): 0.625
- relative viability (NCI-H2342; first compound 0.006325 µM): 0.4
- relative viability (NCI-H2342; first compound 0.02 µM): 0.343
- relative viability (NCI-H650; first compound 0.0002 µM): 0.447
- relative viability (NCI-H650; first compound 0.000632 µM): 0.397
- relative viability (NCI-H650; first compound 0.002 µM): 0.332
- relative viability (NCI-H650; first compound 0.006325 µM): 0.19
- relative viability (NCI-H650; first compound 0.02 µM): 0.21
- relative viability (LU99A; first compound 0.0002 µM): 0.811
- relative viability (LU99A; first compound 0.000632 µM): 0.656
- relative viability (LU99A; first compound 0.002 µM): 0.364
- relative viability (LU99A; first compound 0.006325 µM): 0.335
- relative viability (LU99A; first compound 0.02 µM): 0.242
- relative viability (LOU-NH91; first compound 0.0002 µM): 0.661
- relative viability (LOU-NH91; first compound 0.000632 µM): 0.625
- relative viability (LOU-NH91; first compound 0.002 µM): 0.41
- relative viability (LOU-NH91; first compound 0.006325 µM): 0.317
- relative viability (LOU-NH91; first compound 0.02 µM): 0.269
- relative viability (NCI-H2087; first compound 0.0002 µM): 0.44
- relative viability (NCI-H2087; first compound 0.000632 µM): 0.38
- relative viability (NCI-H2087; first compound 0.002 µM): 0.152
- relative viability (NCI-H2087; first compound 0.006325 µM): 0.159
- relative viability (NCI-H2087; first compound 0.02 µM): 0.0907
- relative viability (201T; first compound 0.0002 µM): 0.4
- relative viability (201T; first compound 0.000632 µM): 0.366
- relative viability (201T; first compound 0.002 µM): 0.36
- relative viability (201T; first compound 0.006325 µM): 0.342
- relative viability (201T; first compound 0.02 µM): 0.242
- relative viability (NCI-H2170; first compound 0.0002 µM): 0.405
- relative viability (NCI-H2170; first compound 0.000632 µM): 0.428
- relative viability (NCI-H2170; first compound 0.002 µM): 0.267
- relative viability (NCI-H2170; first compound 0.006325 µM): 0.217
- relative viability (NCI-H2170; first compound 0.02 µM): 0.174
- relative viability (H3255; first compound 0.0002 µM): 0.353
- relative viability (H3255; first compound 0.000632 µM): 0.349
- relative viability (H3255; first compound 0.002 µM): 0.312
- relative viability (H3255; first compound 0.006325 µM): 0.357
- relative viability (H3255; first compound 0.02 µM): 0.259
- relative viability (NCI-H1975; first compound 0.0002 µM): 0.406
- relative viability (NCI-H1975; first compound 0.000632 µM): 0.334
- relative viability (NCI-H1975; first compound 0.002 µM): 0.209
- relative viability (NCI-H1975; first compound 0.006325 µM): 0.148
- relative viability (NCI-H1975; first compound 0.02 µM): 0.134
- relative viability (EKVX; first compound 0.0002 µM): 0.264
- relative viability (EKVX; first compound 0.000632 µM): 0.218
- relative viability (EKVX; first compound 0.002 µM): 0.191
- relative viability (EKVX; first compound 0.006325 µM): 0.149
- relative viability (EKVX; first compound 0.02 µM): 0.137
- relative viability (NCI-H647; first compound 0.0002 µM): 0.329
- relative viability (NCI-H647; first compound 0.000632 µM): 0.322
- relative viability (NCI-H647; first compound 0.002 µM): 0.133
- relative viability (NCI-H647; first compound 0.006325 µM): 0.106
- relative viability (NCI-H647; first compound 0.02 µM): 0.0836
- relative viability (PC-3 [JPC-3]; first compound 0.0002 µM): 0.484
- relative viability (PC-3 [JPC-3]; first compound 0.000632 µM): 0.48
- relative viability (PC-3 [JPC-3]; first compound 0.002 µM): 0.371
- relative viability (PC-3 [JPC-3]; first compound 0.006325 µM): 0.246
- relative viability (PC-3 [JPC-3]; first compound 0.02 µM): 0.138
- relative viability (SW 1573; first compound 0.0002 µM): 0.311
- relative viability (SW 1573; first compound 0.000632 µM): 0.344
- relative viability (SW 1573; first compound 0.002 µM): 0.159
- relative viability (SW 1573; first compound 0.02 µM): 0.119
- relative viability (HCC-827; first compound 0.0002 µM): 0.392
- relative viability (HCC-827; first compound 0.000632 µM): 0.426
- relative viability (HCC-827; first compound 0.002 µM): 0.357
- relative viability (HCC-827; first compound 0.006325 µM): 0.247
- relative viability (HCC-827; first compound 0.02 µM): 0.213
- relative viability (BEN; first compound 0.0002 µM): 0.248
- relative viability (BEN; first compound 0.000632 µM): 0.253
- relative viability (BEN; first compound 0.002 µM): 0.307
- relative viability (BEN; first compound 0.006325 µM): 0.215
- relative viability (BEN; first compound 0.02 µM): 0.194
- relative viability (NCI-H1437; first compound 0.0002 µM): 0.3
- relative viability (NCI-H1437; first compound 0.000632 µM): 0.294
- relative viability (NCI-H1437; first compound 0.002 µM): 0.23
- relative viability (NCI-H1437; first compound 0.006325 µM): 0.154
- relative viability (NCI-H1437; first compound 0.02 µM): 0.123
- relative viability (LCLC-97TM1; first compound 0.0002 µM): 0.403
- relative viability (LCLC-97TM1; first compound 0.000632 µM): 0.366
- relative viability (LCLC-97TM1; first compound 0.002 µM): 0.267
- relative viability (LCLC-97TM1; first compound 0.006325 µM): 0.162
- relative viability (LCLC-97TM1; first compound 0.02 µM): 0.131
- relative viability (COR-L 105; first compound 0.0002 µM): 0.431
- relative viability (COR-L 105; first compound 0.000632 µM): 0.392
- relative viability (COR-L 105; first compound 0.002 µM): 0.279
- relative viability (COR-L 105; first compound 0.006325 µM): 0.267
- relative viability (COR-L 105; first compound 0.02 µM): 0.247
- relative viability (NCI-H2085; first compound 0.0002 µM): 0.735
- relative viability (NCI-H2085; first compound 0.000632 µM): 0.651
- relative viability (NCI-H2085; first compound 0.002 µM): 0.461
- relative viability (NCI-H2085; first compound 0.006325 µM): 0.389
- relative viability (NCI-H2085; first compound 0.02 µM): 0.194
